Patent publication US8933233B2, “1,3,4-oxadiazole and 1,3,4-thiadiazole β-lactamase inhibitors” (priority 2012, dated 2015)
Counter-ions that a name gives are not always drawn.

Tests used:
[1] = test system: bacterial strains that express KPC β-lactamases; assay: Synergy MIC / standard BLI potentiation MIC assay, strains expressing KPC β-lactamases; format: cell-based, isogenic E. coli and clinical isolates; settings: more active for at least one KPC strain and/or better spectrum; comparator Avibactam
In short: (§1)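 Broth microdilution in CAMHB per CLSI M07-A9, ~10^5 CFU/mL inoculum, 18–20 h at 37 °C with aeration; engineered E. coli kept with 25 μg/mL tetracycline. β-lactam 2-fold from 128 to 0.13 μg/mL with BLI fixed at 4 μg/mL, or BLI serially diluted with β-lactam fixed; MIC is lowest concentration without visible turbidity.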

[2] = test system: bacterial strains that express the class D cephalosporinase OXA-15; assay: Synergy MIC / standard BLI potentiation MIC assay, strains expressing OXA-15; format: cell-based, E. coli; settings: in presence of a β-lactam; comparator Avibactam (CCC)
In short: as §1

SMILES | activity and/or spectrum of activity against bacterial strains that express KPC β-lactamases, compared with Avibactam [1] | activity against bacterial strains that express OXA-15, compared with Avibactam [2]
NC1CC(NCc2nnc([C@@H]3CC[C@@H]4CN3C(=O)N4OS(=O)(=O)O)o2)C1 (stereo partly drawn) [Compound 755, (2S,5R)-2-(5-(((3-aminocyclobutyl)amino)methyl)-1,3,4-oxadiazol-2-yl)-7-oxo-1,6-diazabicyclo[3.2.1]octan-6-yl hydrogen sulfate] | more active than Avibactam | more active than Avibactam
N[C@H]1C[C@@H](NCc2nnc([C@@H]3CC[C@@H]4CN3C(=O)N4OS(=O)(=O)O)o2)C1 [Compound 756, (2S,5R)-2-(5-((((1s,3R)-3-aminocyclobutyl)amino)methyl)-1,3,4-oxadiazol-2-yl)-7-oxo-1,6-diazabicyclo[3.2.1]octan-6-yl hydrogen sulfate] | more active than Avibactam | more active than Avibactam
O=C1N2C[C@@H](CC[C@H]2c2nnc([C@H]3CCNC3)o2)N1OS(=O)(=O)O [Compound 758, (2S,5R)-7-oxo-2-(5-((S)-pyrrolidin-3-yl)-1,3,4-oxadiazol-2-yl)-1,6-diazabicyclo[3.2.1]octan-6-yl hydrogen sulfate] | more active than Avibactam | more active than Avibactam
O=C1N2C[C@@H](CC[C@H]2c2nnc([C@@H]3CCNC3)o2)N1OS(=O)(=O)O [Compound 759, (2S,5R)-7-oxo-2-(5-((R)-pyrrolidin-3-yl)-1,3,4-oxadiazol-2-yl)-1,6-diazabicyclo[3.2.1]octan-6-yl hydrogen sulfate] | more active than Avibactam | more active than Avibactam
N[C@@H]1CN[C@H](c2nnc([C@@H]3CC[C@@H]4CN3C(=O)N4OS(=O)(=O)O)o2)C1 [Compound 760, (2S,5R)-2-(5-((2S,4S)-4-aminopyrrolidin-2-yl)-1,3,4-oxadiazol-2-yl)-7-oxo-1,6-diazabicyclo[3.2.1]octan-6-yl hydrogen sulfate] | more active than Avibactam | more active than Avibactam
N[C@H]1CN[C@@H](c2nnc([C@@H]3CC[C@@H]4CN3C(=O)N4OS(=O)(=O)O)o2)C1 [Compound 761, (2S,5R)-2-(5-((2R,4R)-4-aminopyrrolidin-2-yl)-1,3,4-oxadiazol-2-yl)-7-oxo-1,6-diazabicyclo[3.2.1]octan-6-yl hydrogen sulfate] | more active than Avibactam | more active than Avibactam
N[C@H]1CN[C@H](c2nnc([C@@H]3CC[C@@H]4CN3C(=O)N4OS(=O)(=O)O)o2)C1 [Compound 762, (2S,5R)-2-(5-((2S,4R)-4-aminopyrrolidin-2-yl)-1,3,4-oxadiazol-2-yl)-7-oxo-1,6-diazabicyclo[3.2.1]octan-6-yl hydrogen sulfate] | more active than Avibactam | more active than Avibactam
N[C@@H]1CN[C@@H](c2nnc([C@@H]3CC[C@@H]4CN3C(=O)N4OS(=O)(=O)O)o2)C1 [Compound 763, (2S,5R)-2-(5-((2R,4S)-4-aminopyrrolidin-2-yl)-1,3,4-oxadiazol-2-yl)-7-oxo-1,6-diazabicyclo[3.2.1]octan-6-yl hydrogen sulfate] | more active than Avibactam | more active than Avibactam
